Measured values as given in US9469650B2, “Melampomagnolide B derivatives” (BOARD OF TRUSTEES OF THE UNIVERSITY OF ARKANSAS, priority 2013, dated 2016).

Legend:
HOP-92 = test: panel of 60 human tumor cell lines, growth inhibition (Non-Small Cell Lung Cancer); details: Homo sapiens; for CC50: HOP-92, read-out: LC50; for IC (TGI): HOP-92, read-out: TGI
HT29 = test: panel of 60 human tumor cell lines, growth inhibition (Colon Cancer); details: for Percent Growth: HT29; for GI50 / CC50 / IC (TGI): Homo sapiens; for GI50: HT-29; for CC50: HT-29, read-out: LC50; for IC (TGI): HT-29, read-out: TGI
HOP-62 = test: panel of 60 human tumor cell lines, growth inhibition (Non-Small Cell Lung Cancer); details: Homo sapiens; for GI50: HOP-62; for CC50: HOP-62, read-out: LC50
PC-3 = test: panel of 60 human tumor cell lines, growth inhibition (Prostate Cancer); details: Homo sapiens; for GI50: PC-3; for CC50: PC-3, read-out: LC50; for IC (TGI): PC-3, read-out: TGI
MOLT-4 = test: panel of 60 human tumor cell lines, growth inhibition (Leukemia); details: Homo sapiens; for GI50: MOLT-4; for CC50: MOLT-4, read-out: LC50; for IC (TGI): MOLT-4, read-out: TGI
SF-295 = test: panel of 60 human tumor cell lines, growth inhibition (CNS Cancer); details: Homo sapiens; for GI50: SF-295; for CC50: SF-295, read-out: LC50; for IC (TGI): SF-295, read-out: TGI
SW-620 = test: panel of 60 human tumor cell lines, growth inhibition (Colon Cancer); details: Homo sapiens; for CC50: SW-620, read-out: LC50; for IC (TGI): SW-620, read-out: TGI
LOX IMVI = test: panel of 60 human tumor cell lines, growth inhibition (Melanoma); details: Homo sapiens; for CC50: read-out: LC50; for IC (TGI): read-out: TGI
SR = test: panel of 60 human tumor cell lines, growth inhibition (Leukemia); details: Homo sapiens; for CC50: read-out: LC50; for IC (TGI): read-out: TGI
K-562 = test: as above; details: for CC50: K562, read-out: LC50
COLO 205 = test: panel of 60 human tumor cell lines, growth inhibition (Colon Cancer); details: Homo sapiens; for GI50: COLO 205; for CC50: COLO 205, read-out: LC50; for IC (TGI): COLO 205, read-out: TGI
MDA-MB-468 = test: panel of 60 human tumor cell lines, growth inhibition (Breast Cancer); details: Homo sapiens; for GI50: MDA-MB-468; for CC50: MDA-MB-468, read-out: LC50; for IC (TGI): MDA-MB-468, read-out: TGI
U251 = test: panel of 60 human tumor cell lines, growth inhibition (CNS Cancer); details: Homo sapiens; for GI50: U-251; for CC50: U-251, read-out: LC50; for IC (TGI): U-251, read-out: TGI
SF-539 = test: as above; details: Homo sapiens; for GI50: SF-539; for CC50: SF-539, read-out: LC50; for IC (TGI): SF-539, read-out: TGI
NCI-H322M = test: panel of 60 human tumor cell lines, growth inhibition (Non-Small Cell Lung Cancer); details: Homo sapiens; for CC50: read-out: LC50; for IC (TGI): read-out: TGI
CAKI-1 = test: panel of 60 human tumor cell lines, growth inhibition (Renal Cancer); details: Homo sapiens; for GI50: CAKI-1; for CC50: CAKI-1, read-out: LC50; for IC (TGI): CAKI-1, read-out: TGI
OVCAR-3 = test: panel of 60 human tumor cell lines, growth inhibition (Ovarian Cancer); details: for GI50 / Percent Growth: OVCAR-3; for CC50: OVCAR-3, read-out: LC50
[1] = K-562, Log10 Concentration −4.0
[2] = K-562, Log10 Concentration −5.0
[3] = K-562, Log10 Concentration −6.0
[4] = K-562, Log10 Concentration −7.0
[5] = K-562, Log10 Concentration −8.0

With `C=C1C(=O)O[C@H]2[C@H]1CC/C(COC(=O)NCCN1CCCC1)=C\CC[C@@]1(C)O[C@@H]21` [JVM 59, ((1aR,7aS,10aS,10bS,E)-1a-methyl-8-methylene-9-oxo-1a,2,3,6,7,7a,8,9,10a,10b-decahydrooxireno[2′,3′:9,10]cyclodeca[1,2-b]furan-5-yl)methyl-(2-(pyrrolidin-1-yl)ethyl)carbamate] the GI50 (HOP-92; HOP-92, HOP-92, five dose) was 2.25 µM, the GI50 (HOP-92; HOP-92, HOP-92, 5-dose assay) was 2.25 µM and the CC50 (HOP-92) was 32.3 µM. The IC (TGI) (HOP-92) was 7.86 µM, the “Percent Growth” value (HT29; Log10 Concentration −4.0) was −76% and the “Percent Growth” value (HT29; Log10 Concentration −5.0) was 59%. For the same molecule, the “Percent Growth” value (HT29; Log10 Concentration −6.0) was 99%, the “Percent Growth” value (HT29; Log10 Concentration −7.0) was 101% and the “Percent Growth” value (HT29; Log10 Concentration −8.0) was 98%. For the same molecule, the GI50 (HT29) was 11.7 µM, the CC50 (HT29) was 64.4 µM and the IC (TGI) (HT29) was 27.4 µM. The GI50 (HOP-62) was 18 µM, the CC50 (HOP-62) was 62.3 µM and the IC (TGI) (HOP-62; HOP-62, read-out: TGI) was 33.5 µM. It also gave a GI50 (PC-3) of 15.7 µM, a CC50 (PC-3) of 70.1 µM and an IC (TGI) (PC-3) of 33.2 µM. It also gave a GI50 (MOLT-4) of 3.48 µM, a CC50 (MOLT-4) of 89.7 µM and an IC (TGI) (MOLT-4) of 17.5 µM. The GI50 (SF-295) was 48.8 µM, the CC50 (SF-295) was greater than 100 µM and the IC (TGI) (SF-295) was greater than 100 µM. The GI50 (SW-620; SW-620, SW-620, five dose) was 3.46 µM, the GI50 (SW-620; SW-620, SW-620, 5-dose assay) was 3.46 µM and the CC50 (SW-620) was 47.2 µM. It also gave an IC (TGI) (SW-620) of 13.8 µM, a GI50 (LOX IMVI; 5-dose assay) of 7.88 µM and a GI50 (LOX IMVI; five dose) of 7.88 µM. It also gave a CC50 (LOX IMVI) of 60.6 µM, an IC (TGI) (LOX IMVI) of 23.4 µM and a GI50 (SR) of 10.2 µM. It also gave a CC50 (SR) greater than 100 µM, an IC (TGI) (SR) of 39.3 µM and a GI50 (K-562; Homo sapiens, K562) of 3.26 µM. The CC50 (K-562; Homo sapiens) was greater than 100 µM, the TGI (K-562; K-562, five dose) was 1.86E−5 and the “Percent Growth” value (K-562; [1]) was −36%. For the same molecule, the “Percent Growth” value (K-562; [2]) was 13%, the “Percent Growth” value (K-562; [3]) was 89% and the “Percent Growth” value (K-562; [4]) was 79%. The “Percent Growth” value (K-562; [5]) was 87%, the GI50 (COLO 205) was 4.78 µM and the CC50 (COLO 205) was 45 µM. For the same molecule, the IC (TGI) (COLO 205) was 16.8 µM, the GI50 (MDA-MB-468) was 2.3 µM and the CC50 (MDA-MB-468) was 42.9 µM. It also gave an IC (TGI) (MDA-MB-468) of 9.06 µM, a GI50 (U251) of 26.7 µM and a CC50 (U251) greater than 100 µM. For the same molecule, the IC (TGI) (U251) was 93.1 µM, the GI50 (SF-539) was 15 µM and the CC50 (SF-539) was 54.1 µM. The IC (TGI) (SF-539) was 28.5 µM, the GI50 (NCI-H322M) was 73.9 µM and the CC50 (NCI-H322M) was greater than 100 µM. For the same molecule, the IC (TGI) (NCI-H322M) was greater than 100 µM, the GI50 (CAKI-1) was 6.86 µM and the CC50 (CAKI-1) was 51.8 µM. It also gave an IC (TGI) (CAKI-1) of 21.2 µM, a GI50 (OVCAR-3; Homo sapiens) of 8.41 µM and a CC50 (OVCAR-3; Homo sapiens) of 46.4 µM. For the same molecule, the IC (TGI) (OVCAR-3; Homo sapiens, OVCAR-3, read-out: TGI) was 20.8 µM, the “Percent Growth” value (OVCAR-3; Log10 Concentration −4.0) was −98% and the “Percent Growth” value (OVCAR-3; Log10 Concentration −5.0) was 46%. The “Percent Growth” value (OVCAR-3; Log10 Concentration −6.0) was 102%, the “Percent Growth” value (OVCAR-3; Log10 Concentration −7.0) was 100% and the “Percent Growth” value (OVCAR-3; Log10 Concentration −8.0) was 101%.

`C=C1C(=O)O[C@H]2[C@H]1CC/C(COC(=S)n1ccnc1)=C\CC[C@@]1(C)O[C@@H]21` [JVM 66] showed a GI50 (HOP-92; HOP-92, HOP-92, NCI five dose) of 6.83 µM, a CC50 (HOP-92) of 83.2 µM and an IC (TGI) (HOP-92) of 26.9 µM. The “Percent Growth” value (HT29; Log10 Concentration −4.0) was −70%, the “Percent Growth” value (HT29; Log10 Concentration −5.0) was 60% and the “Percent Growth” value (HT29; Log10 Concentration −6.0) was 105%. The “Percent Growth” value (HT29; Log10 Concentration −7.0) was 100%, the “Percent Growth” value (HT29; Log10 Concentration −8.0) was 99% and the GI50 (HT29) was 12 µM. It also gave a CC50 (HT29) of 69.9 µM, an IC (TGI) (HT29) of 29 µM and a GI50 (HOP-62) of 36.5 µM. The CC50 (HOP-62) was greater than 100 µM, the GI50 (PC-3) was 12 µM and the CC50 (PC-3) was greater than 100 µM. It also gave an IC (TGI) (PC-3) of 66.6 µM, a GI50 (MOLT-4) of 6.38 µM and a CC50 (MOLT-4) greater than 100 µM. The IC (TGI) (MOLT-4) was 34.4 µM, the GI50 (SF-295) was 45 µM and the CC50 (SF-295) was greater than 100 µM. It also gave an IC (TGI) (SF-295) of 106 µM, a GI50 (SW-620; SW-620, SW-620, NCI five dose) of 4.86 µM and a CC50 (SW-620) of 78.3 µM. It also gave an IC (TGI) (SW-620) of 21.7 µM, a GI50 (LOX IMVI; NCI five dose) of 3.23 µM and a CC50 (LOX IMVI) of 43.1 µM. It also gave an IC (TGI) (LOX IMVI) of 11.8 µM, a GI50 (SR) of 6.17 µM and a CC50 (SR) greater than 100 µM. The IC (TGI) (SR) was 38.5 µM, the CC50 (K-562; Homo sapiens) was greater than 100 µM and the “Percent Growth” value (K-562; [1]) was 1%. The “Percent Growth” value (K-562; [2]) was 16%, the “Percent Growth” value (K-562; [3]) was 100% and the “Percent Growth” value (K-562; [4]) was 90%. For the same molecule, the “Percent Growth” value (K-562; [5]) was 96%, the TGI (K-562; K-562, NCI five dose) was greater than 1.00E−4 and the GI50 (COLO 205) was 12.3 µM. It also gave a CC50 (COLO 205) of 61.9 µM, an IC (TGI) (COLO 205) of 27.6 µM and a GI50 (MDA-MB-468) of 3.55 µM. For the same molecule, the CC50 (MDA-MB-468) was greater than 100 µM, the IC (TGI) (MDA-MB-468) was 28.5 µM and the GI50 (U251) was 32.5 µM. The CC50 (U251) was greater than 100 µM, the IC (TGI) (U251) was greater than 100 µM and the GI50 (SF-539) was 16.7 µM. The CC50 (SF-539) was 69.1 µM, the IC (TGI) (SF-539) was 34 µM and the GI50 (NCI-H322M) was 69.5 µM. The CC50 (NCI-H322M) was greater than 100 µM, the IC (TGI) (NCI-H322M) was 106 µM and the GI50 (CAKI-1) was 12.6 µM. The CC50 (CAKI-1) was 73.8 µM, the IC (TGI) (CAKI-1) was 30.5 µM and the GI50 (OVCAR-3; Homo sapiens) was 10.4 µM. For the same molecule, the CC50 (OVCAR-3; Homo sapiens) was 49.2 µM, the “Percent Growth” value (OVCAR-3; Log10 Concentration −4.0) was −96% and the “Percent Growth” value (OVCAR-3; Log10 Concentration −5.0) was 53%. For the same molecule, the “Percent Growth” value (OVCAR-3; Log10 Concentration −6.0) was 103%, the “Percent Growth” value (OVCAR-3; Log10 Concentration −7.0) was 130% and the “Percent Growth” value (OVCAR-3; Log10 Concentration −8.0) was 101%.
